Measurements reported in patent US12447167B2, “GM-CSF-producing t-cell control agent and Th1/Th2 immune balance regulator” (National Center of Neurology and Psychiatry, priority 2014, dated 2025).

Tests used:
[1] = Disposition after single oral dose, humans (normal subjects); assay type: in vivo, human; design: concentration in blood: unit not given here; conditions: for AUC(0-inf) / AUC(0-t) / half-life / Cmax / Tmax: human; for AUC(0-inf) / AUC(0-t) / half-life: blood; for AUC(0-inf) / AUC(0-t) / half-life / Cmax / Tmax / concentration in blood: normal subjects; for Cmax / Tmax: plasma
Experimental: (§1) After a single dose of compound 31 labeled with ^14C was orally administered at a predetermined dose to each of a male mouse, a male rat, and a male cynomolgus monkey under fasting conditions, the concentration in blood was measured after a lapse of a given time, and parameters such as maximum plasma concentration Cmax, time Tmax to reach the maximum plasma concentration, half-life t1/2, area under curve AUC0-∞, mean retention time MRT0-∞, and bioavailability BA were calculated. The concentration in blood in humans (normal subjects) was measured and each of the parameters was calculated, in the similar manner as above except that ^14C-unlabeled compound 31 was used.
(§2) In the tables, “N.D.” means not detected.
In this context, assuming the body weights of the humans were 60 kg, the doses were corrected to be the same, and the value of AUC0-∞ was compared between the mouse, the rat, and the cynomolgus monkey, and the humans. […] Specifically, AUC0-∞ for the humans was 2.72 to 8.94 times AUC0-∞ for the mouse, 4.77 to 15.7 times AUC0-∞ for the rat, and 6.69 to 22.0 times AUC0-∞ for the cynomolgus monkey.

[2] = Disposition after single oral dose, mouse; assay type: in vivo; design: concentration in blood: unit not given here; conditions: male mouse, 5 mg/kg single oral, 14C-labeled, fasting
Experimental: as §1, §2

- species difference (fold) of dose-corrected AUC0-∞, human vs cynomolgus monkey ([1]; human 0.3 mg/body (60 kg assumed) vs cynomolgus monkey 10 mg/kg): 19.70 fold
- species difference (fold) of dose-corrected AUC0-∞, human vs mouse ([1]; human 0.3 mg/body (60 kg assumed) vs mouse 5 mg/kg): 8.01 fold
- species difference (fold) of dose-corrected AUC0-∞, human vs rat ([1]; human 0.3 mg/body (60 kg assumed) vs rat 10 mg/kg): 14.05 fold
- species difference (fold) of dose-corrected AUC0-∞, human vs cynomolgus monkey ([1]; human 1 mg/body (60 kg assumed) vs cynomolgus monkey 10 mg/kg): 21.99 fold
- species difference (fold) of dose-corrected AUC0-∞, human vs mouse ([1]; human 1 mg/body (60 kg assumed) vs mouse 5 mg/kg): 8.94 fold
- species difference (fold) of dose-corrected AUC0-∞, human vs rat ([1]; human 1 mg/body (60 kg assumed) vs rat 10 mg/kg): 15.69 fold
- species difference (fold) of dose-corrected AUC0-∞, human vs cynomolgus monkey ([1]; human 3 mg/body (60 kg assumed) vs cynomolgus monkey 10 mg/kg): 12.29 fold
- species difference (fold) of dose-corrected AUC0-∞, human vs mouse ([1]; human 3 mg/body (60 kg assumed) vs mouse 5 mg/kg): 5.00 fold
- species difference (fold) of dose-corrected AUC0-∞, human vs rat ([1]; human 3 mg/body (60 kg assumed) vs rat 10 mg/kg): 8.77 fold
- species difference (fold) of dose-corrected AUC0-∞, human vs cynomolgus monkey ([1]; human 10 mg/body (60 kg assumed) vs cynomolgus monkey 10 mg/kg): 9.62 fold
- species difference (fold) of dose-corrected AUC0-∞, human vs mouse ([1]; human 10 mg/body (60 kg assumed) vs mouse 5 mg/kg): 3.91 fold
- species difference (fold) of dose-corrected AUC0-∞, human vs rat ([1]; human 10 mg/body (60 kg assumed) vs rat 10 mg/kg): 6.86 fold
- species difference (fold) of dose-corrected AUC0-∞, human vs cynomolgus monkey ([1]; human 30 mg/body (60 kg assumed) vs cynomolgus monkey 10 mg/kg): 6.69 fold
- species difference (fold) of dose-corrected AUC0-∞, human vs mouse ([1]; human 30 mg/body (60 kg assumed) vs mouse 5 mg/kg): 2.72 fold
- species difference (fold) of dose-corrected AUC0-∞, human vs rat ([1]; human 30 mg/body (60 kg assumed) vs rat 10 mg/kg): 4.77 fold
- AUC(0-inf) ([1]; 0.3 mg/body oral): 23.4 ng·h/mL
- AUC(0-t) ([1]; 0.3 mg/body oral): 11.7 ng·h/mL
- half-life ([1]; 0.3 mg/body oral): 21.4 h
- AUC(0-inf) ([1]; 1 mg/body oral): 87.1 ng·h/mL
- AUC(0-t) ([1]; 1 mg/body oral): 63.4 ng·h/mL
- half-life ([1]; 1 mg/body oral): 44.3 h
- AUC(0-inf) ([1]; 3 mg/body oral): 146 ng·h/mL
- AUC(0-t) ([1]; 3 mg/body oral): 121 ng·h/mL
- half-life ([1]; 3 mg/body oral): 47.8 h
- AUC(0-inf) ([1]; 10 mg/body oral): 381 ng·h/mL
- AUC(0-t) ([1]; 10 mg/body oral): 324 ng·h/mL
- half-life ([1]; 10 mg/body oral): 45.3 h
- AUC(0-inf) ([1]; 30 mg/body oral): 795 ng·h/mL
- AUC(0-t) ([1]; 30 mg/body oral): 657 ng·h/mL
- half-life ([1]; 30 mg/body oral): 53.6 h
- Cmax ([1]; 0.3 mg/body oral): 0.629 ng/mL
- Tmax ([1]; 0.3 mg/body oral): 13 h
- Cmax ([1]; 1 mg/body oral): 1.49 ng/mL
- Tmax ([1]; 1 mg/body oral): 20.7 h
- Cmax ([1]; 3 mg/body oral): 2.11 ng/mL
- Tmax ([1]; 3 mg/body oral): 28.3 h
- Cmax ([1]; 10 mg/body oral): 6.01 ng/mL
- Tmax ([1]; 10 mg/body oral): 26.3 h
- Cmax ([1]; 30 mg/body oral): 9.81 ng/mL
- Tmax ([1]; 30 mg/body oral): 28.3 h
- concentration in blood ([1]; 0.3 mg/body oral, 6 h): 0.368
- concentration in blood ([1]; 0.3 mg/body oral, 13 h): 0.629
- concentration in blood ([1]; 0.3 mg/body oral, 21 h): 0.365
- concentration in blood ([1]; 0.3 mg/body oral, 24 h): 0.31
- concentration in blood ([1]; 0.3 mg/body oral, 30 h): 0.382
- concentration in blood ([1]; 1 mg/body oral, 6 h): 0.368
- concentration in blood ([1]; 1 mg/body oral, 13 h): 1.39
- concentration in blood ([1]; 1 mg/body oral, 21 h): 1.04
- concentration in blood ([1]; 1 mg/body oral, 24 h): 0.98
- concentration in blood ([1]; 1 mg/body oral, 30 h): 0.961
- concentration in blood ([1]; 1 mg/body oral, 36 h): 1.01
- concentration in blood ([1]; 1 mg/body oral, 48 h): 0.719
- concentration in blood ([1]; 1 mg/body oral, 72 h): 0.484
- concentration in blood ([1]; 1 mg/body oral, 96 h): 0.224
- concentration in blood ([1]; 3 mg/body oral, 6 h): 0.337
- concentration in blood ([1]; 3 mg/body oral, 13 h): 1.13
- concentration in blood ([1]; 3 mg/body oral, 21 h): 1.33
- concentration in blood ([1]; 3 mg/body oral, 24 h): 1.33
- concentration in blood ([1]; 3 mg/body oral, 30 h): 1.7
- concentration in blood ([1]; 3 mg/body oral, 36 h): 1.99
- concentration in blood ([1]; 3 mg/body oral, 48 h): 1.37
- concentration in blood ([1]; 3 mg/body oral, 72 h): 0.838
- concentration in blood ([1]; 3 mg/body oral, 96 h): 0.549
- concentration in blood ([1]; 3 mg/body oral, 144 h): 0.266
- concentration in blood ([1]; 10 mg/body oral, 6 h): 2.01
- concentration in blood ([1]; 10 mg/body oral, 13 h): 3.32
- concentration in blood ([1]; 10 mg/body oral, 21 h): 3.15
- concentration in blood ([1]; 10 mg/body oral, 24 h): 3.33
- concentration in blood ([1]; 10 mg/body oral, 30 h): 3.76
- concentration in blood ([1]; 10 mg/body oral, 36 h): 5.37
- concentration in blood ([1]; 10 mg/body oral, 48 h): 3.66
- concentration in blood ([1]; 10 mg/body oral, 72 h): 2.23
- concentration in blood ([1]; 10 mg/body oral, 96 h): 1.42
- concentration in blood ([1]; 10 mg/body oral, 144 h): 0.689
- concentration in blood ([1]; 30 mg/body oral, 6 h): 2.82
- concentration in blood ([1]; 30 mg/body oral, 13 h): 6.65
- concentration in blood ([1]; 30 mg/body oral, 21 h): 6.98
- concentration in blood ([1]; 30 mg/body oral, 24 h): 7.47
- concentration in blood ([1]; 30 mg/body oral, 30 h): 8.08
- concentration in blood ([1]; 30 mg/body oral, 36 h): 9.46
- concentration in blood ([1]; 30 mg/body oral, 48 h): 6.58
- concentration in blood ([1]; 30 mg/body oral, 72 h): 4.65
- concentration in blood ([1]; 30 mg/body oral, 96 h): 3.05
- concentration in blood ([1]; 30 mg/body oral, 144 h): 1.82
- AUC(0-inf) ([2]; blood): 2920 ng·h/mL
- AUC(0-t) ([2]; blood): 2900 ng·h/mL
- half-life ([2]; blood): 11 h
- MRT inf ([2]; blood, read-out: MRT0-∞): 15.4 h
- BA [2]: 1.01%
- Rate of absorption [2]: 1.36%
- concentration in blood ([2]; 4 h): 46.5
- concentration in blood ([2]; 8 h): 209
- concentration in blood ([2]; 12 h): 142
- concentration in blood ([2]; 24 h): 33
- concentration in blood ([2]; 48 h): 5.21
- concentration in blood ([2]; 72 h): 1.62
- Cmax ([2]; plasma): 209 ng/mL
- Tmax ([2]; plasma): 8 h
Structure (SMILES): CCCCCCCCCCCCCCCCCCCCCCCC(=O)NC(COC1OC(CO)C(O)C(O)C1O)[C@H](O)C(O)CCCCC (stereo in doubt) [compound 31, (2S,3S,4R)-1-O-(α-D-galactosyl)-2-(N-tetracosanoylamino)-1,3,4-nonanetriol]
